PubChem BioAssay AID288 (DTP/NCI, 2004)
Values joined by “and” are separate entries in the source; they are usually repeats but may differ in a detail not shown here. Equal values may be shown once. Inconclusive results are not listed.

Test system: BDF1 mice, M5076 sarcoma s.c., survival/tumor T/C
Experiment: NCI In Vivo Anticancer Drug Screen. Data for tumor model Sarcoma M5076 (subcutaneous) in B6D2F1 (BDF1) mice
Experimental: The antitumor activity of compounds was measured in mice bearing transplantable tumors. Survival or tumor size were measured and the results are expressed as the measurement made in the treated group (T) divided by the measurement made in the vehicle treated control group (C). The tumor model used in this assay is Sarcoma M5076 (subcutaneous) in B6D2F1 (BDF1) mice

**Q.** With `CC(C)[C@](O)(C(=O)OCC1=CC[N+]2([O-])CC[C@@H](O)[C@@H]12)[C@H](C)O` (some centres undefined) as the compound, how does the T/C (endpoint: mean tumor weight, dose: 75.0 mg/kg/injection, schedule: Q02DX011 (ip), vehicle: saline, higher = larger tumour) read?
**A.** Its T/C is 96 % of control.

**Q.** And the T/C (endpoint: mean tumor weight, dose: 100.0 mg/kg/injection, schedule: Q02DX011 (ip), vehicle: saline, higher = larger tumour)?
**A.** The T/C was 53 % of control.

**Q.** And the T/C (endpoint: mean tumor weight, dose: 150.0 mg/kg/injection, schedule: Q02DX011 (ip), vehicle: saline, higher = larger tumour)?
**A.** Its T/C is 82 % of control.

**Q.** And the T/C (endpoint: mean tumor weight, dose: 200.0 mg/kg/injection, schedule: Q02DX011 (ip), vehicle: saline, higher = larger tumour)?
**A.** Its T/C is 37 % of control.

**Q.** What about the T/C (endpoint: mean tumor weight, dose: 300.0 mg/kg/injection, schedule: Q02DX011 (ip), vehicle: saline, higher = larger tumour) of the same compound?
**A.** The T/C was 6 % of control.

**Q.** And the T/C (endpoint: mean tumor weight, dose: 400.0 mg/kg/injection, schedule: Q02DX011 (ip), vehicle: saline, higher = larger tumour)?
**A.** Its T/C is 13 % of control.

**Q.** What about the T/C (endpoint: median survival time, dose: 200.0 mg/kg/injection, schedule: Q01DX007 (ip), vehicle: saline, higher = longer survival) of the same compound?
**A.** Its T/C is 95 % of control.

**Q.** And the T/C (endpoint: median survival time, dose: 400.0 mg/kg/injection, schedule: Q01DX007 (ip), vehicle: saline, higher = longer survival)?
**A.** Its T/C is 117 % of control.

**Q.** And the T/C (endpoint: median survival time, dose: 540.0 mg/kg/injection, schedule: Q04DX003 (ip), vehicle: saline, higher = longer survival)?
**A.** The T/C was 104 % of control.

**Q.** And the T/C (endpoint: median survival time, dose: 800.0 mg/kg/injection, schedule: Q01DX007 (ip), vehicle: saline, higher = longer survival)?
**A.** Its T/C is 110 % of control.

**Q.** What about the T/C (endpoint: median survival time, dose: 800.0 mg/kg/injection, schedule: Q04DX003 (ip), vehicle: saline, higher = longer survival) of the same compound?
**A.** The T/C was 112 % of control.

**Q.** What about the T/C (endpoint: median survival time, dose: 1200.0 mg/kg/injection, schedule: Q04DX003 (ip), vehicle: saline, higher = longer survival) of the same compound?
**A.** Its T/C is 114 % of control.

**Q.** And the T/C (endpoint: median tumor weight (est.), dose: 75.0 mg/kg/injection, schedule: Q02DX011 (ip), vehicle: saline, higher = larger tumour)?
**A.** Its T/C is 89 % of control.

**Q.** And the T/C (endpoint: median tumor weight (est.), dose: 100.0 mg/kg/injection, schedule: Q02DX011 (ip), vehicle: saline, higher = larger tumour)?
**A.** Its T/C is 56 % of control.

**Q.** And the T/C (endpoint: median tumor weight (est.), dose: 150.0 mg/kg/injection, schedule: Q02DX011 (ip), vehicle: saline, higher = larger tumour)?
**A.** Its T/C is 82 % of control.

**Q.** And the T/C (endpoint: median tumor weight (est.), dose: 200.0 mg/kg/injection, schedule: Q02DX011 (ip), vehicle: saline, higher = larger tumour)?
**A.** Its T/C is 39 % of control.

**Q.** And the T/C (endpoint: median tumor weight (est.), dose: 300.0 mg/kg/injection, schedule: Q02DX011 (ip), vehicle: saline, higher = larger tumour)?
**A.** Its T/C is 3 % of control.

**Q.** What about the T/C (endpoint: median tumor weight (est.), dose: 400.0 mg/kg/injection, schedule: Q02DX011 (ip), vehicle: saline, higher = larger tumour) of the same compound?
**A.** Its T/C is 14 % of control.

**Q.** For `CO[C@@]12[C@H](COC(N)=O)C3=C(C(=O)C(C)=C(N)C3=O)N1C[C@@H]1N[C@@H]12`, which T/C (endpoint: median survival time, dose: 0.38 mg/kg/injection, schedule: Q04DX006 (ip), vehicle: saline, higher = longer survival) is on record?
**A.** The T/C was 105 % of control.

**Q.** And the T/C (endpoint: median survival time, dose: 0.75 mg/kg/injection, schedule: Q02DX033 (ip), vehicle: saline, higher = longer survival)?
**A.** The T/C was 154 % of control.

**Q.** What about the T/C (endpoint: median survival time, dose: 0.75 mg/kg/injection, schedule: Q04DX006 (ip), vehicle: saline, higher = longer survival) of the same compound?
**A.** The T/C was 103 % of control.

**Q.** And the T/C (endpoint: median survival time, dose: 1.5 mg/kg/injection, schedule: Q02DX033 (ip), vehicle: saline, higher = longer survival)?
**A.** Its T/C is 92 % of control.

**Q.** What about the T/C (endpoint: median survival time, dose: 3.0 mg/kg/injection, schedule: Q04DX006 (ip), vehicle: saline, higher = longer survival) of the same compound?
**A.** The T/C was 101 % of control.

**Q.** Which results are given for `COc1cc2c[n+](C)c3c4cc5c(cc4ccc3c2cc1OC)OCO5`?
**A.** T/C (endpoint: mean tumor weight, dose: 10.0 mg/kg/injection, schedule: Q02DX011 (ip), vehicle: Klucel (hydroxypropylcellulose) (HPC), higher = larger tumour): 73 % of control; T/C (endpoint: median tumor weight (est.), dose: 10.0 mg/kg/injection, schedule: Q02DX011 (ip), vehicle: Klucel (hydroxypropylcellulose) (HPC), higher = larger tumour): 91 % of control; T/C (endpoint: median tumor weight (est.), dose: 20.0 mg/kg/injection, schedule: Q02DX011 (ip), vehicle: Klucel (hydroxypropylcellulose) (HPC), higher = larger tumour): 56 % of control

**Q.** With `O=C1c2c(O)ccc(O)c2C(=O)c2c(NCCNCCO)ccc(NCCNCCO)c21` as the compound, how does the T/C (endpoint: median tumor weight (est.), dose: 0.25 mg/kg/injection, schedule: Q02DX011 (ip), vehicle: water, higher = larger tumour) read?
**A.** Its T/C is 97 % of control.

**Q.** What about the T/C (endpoint: median tumor weight (est.), dose: 1.0 mg/kg/injection, schedule: Q02DX011 (ip), vehicle: water, higher = larger tumour) of the same compound?
**A.** The T/C was 31 % of control and 38 % of control.

**Q.** And the T/C (endpoint: median tumor weight (est.), dose: 2.0 mg/kg/injection, schedule: Q02DX011 (ip), vehicle: water, higher = larger tumour)?
**A.** The T/C was 4 % of control.
